Results reported in PubChem BioAssay (NCI).
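Briefly, cells in 96-well plates were exposed to five compound concentrations for 48 h, and endpoints were estimated by linear interpolation. GI50 marks 50% less growth. The concentration for full growth arrest is given as TGI.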

How the values were obtained:
Test in all cases: growth of human tumour cells (NCI), 48 h
LOX IMVI melanoma = tested on: LOX IMVI melanoma
786-0 renal = tested on: 786-0 renal
ACHN renal = tested on: ACHN renal
OVCAR-4 ovarian = tested on: OVCAR-4 ovarian
HOP-62 NSCLC = tested on: HOP-62 NSCLC
A498 renal = tested on: A498 renal
K-562 leukemia = tested on: K-562 leukemia
PC-3 prostate = tested on: PC-3 prostate
SR leukemia = tested on: SR leukemia
HCT-116 colon = tested on: HCT-116 colon
TK-10 renal = tested on: TK-10 renal
SK-OV-3 ovarian = tested on: SK-OV-3 ovarian
UO-31 renal = tested on: UO-31 renal
HT29 colon = tested on: HT29 colon
OVCAR-5 ovarian = tested on: OVCAR-5 ovarian
KM12 colon = tested on: KM12 colon
MDA-MB-231 breast = tested on: MDA-MB-231 breast
SNB-75 CNS = tested on: SNB-75 CNS
U251 CNS = tested on: U251 CNS
BT-549 breast = tested on: BT-549 breast
NCI-H522 lung = tested on: NCI-H522 lung
SN12C renal = tested on: SN12C renal
CAKI-1 renal = tested on: CAKI-1 renal
DU-145 prostate = tested on: DU-145 prostate
RXF 393 renal = tested on: RXF 393 renal
SF-295 CNS = tested on: SF-295 CNS
MALME-3M melanoma = tested on: MALME-3M melanoma
T-47D breast = tested on: T-47D breast
NCI-H23 lung = tested on: NCI-H23 lung
NCI/ADR-RES ovarian = tested on: NCI/ADR-RES ovarian
OVCAR-3 ovarian = tested on: OVCAR-3 ovarian
COLO 205 colon = tested on: COLO 205 colon
SW-620 colon = tested on: SW-620 colon
UACC-257 melanoma = tested on: UACC-257 melanoma
SK-MEL-28 melanoma = tested on: SK-MEL-28 melanoma
SNB-19 CNS = tested on: SNB-19 CNS
CCRF-CEM leukemia = tested on: CCRF-CEM leukemia
SF-539 CNS = tested on: SF-539 CNS
M14 melanoma = tested on: M14 melanoma
SK-MEL-2 melanoma = tested on: SK-MEL-2 melanoma
UACC-62 melanoma = tested on: UACC-62 melanoma
HCT-15 colon = tested on: HCT-15 colon
HCC-2998 colon = tested on: HCC-2998 colon
RPMI-8226 leukemia = tested on: RPMI-8226 leukemia
HS 578T breast = tested on: HS 578T breast
OVCAR-8 ovarian = tested on: OVCAR-8 ovarian
EKVX NSCLC = tested on: EKVX NSCLC
A549 NSCLC = tested on: A549 NSCLC
MDA-MB-435 = tested on: MDA-MB-435
SK-MEL-5 melanoma = tested on: SK-MEL-5 melanoma
MOLT-4 leukemia = tested on: MOLT-4 leukemia
NCI-H460 lung = tested on: NCI-H460 lung
NCI-H226 lung = tested on: NCI-H226 lung
SF-268 CNS = tested on: SF-268 CNS
IGROV1 ovarian = tested on: IGROV1 ovarian
HL-60(TB) leukemia = tested on: HL-60(TB) leukemia
HOP-92 NSCLC = tested on: HOP-92 NSCLC

C=C1C(=O)O[C@H]2[C@H]1CC/C(COC(=O)NCc1c[nH]c3ccc(OC)cc13)=C\CC[C@@]1(C)O[C@@H]21
GI50 (LOX IMVI melanoma): 1190 nM
TGI (LOX IMVI melanoma): 2520 nM
GI50 (786-0 renal): 445 nM
TGI (786-0 renal): 1800 nM
GI50 (ACHN renal): 729 nM
TGI (ACHN renal): 2010 nM
GI50 (OVCAR-4 ovarian): 2140 nM
TGI (OVCAR-4 ovarian): 11800 nM
GI50 (HOP-62 NSCLC): 10600 nM
TGI (HOP-62 NSCLC): 24100 nM
GI50 (A498 renal): 13000 nM
TGI (A498 renal): 25800 nM
GI50 (K-562 leukemia): 279 nM
TGI (K-562 leukemia): 11200 nM
GI50 (PC-3 prostate): 1070 nM
TGI (PC-3 prostate): 2590 nM
GI50 (SR leukemia): 331 nM
TGI (SR leukemia): 4380 nM
GI50 (HCT-116 colon): 268 nM
TGI (HCT-116 colon): 1220 nM
GI50 (TK-10 renal): 1950 nM
TGI (TK-10 renal): 3840 nM
GI50 (SK-OV-3 ovarian): 12700 nM
TGI (SK-OV-3 ovarian): 25200 nM
GI50 (UO-31 renal): 1740 nM
TGI (UO-31 renal): 3120 nM
GI50 (HT29 colon): 1020 nM
TGI (HT29 colon): 2710 nM
GI50 (OVCAR-5 ovarian): 2140 nM
TGI (OVCAR-5 ovarian): 4900 nM
GI50 (KM12 colon): 3540 nM
TGI (KM12 colon): 14000 nM
GI50 (MDA-MB-231 breast): 1920 nM
TGI (MDA-MB-231 breast): 4300 nM
GI50 (SNB-75 CNS): 11000 nM
TGI (SNB-75 CNS): 23500 nM
GI50 (U251 CNS): 3390 nM
TGI (U251 CNS): 14000 nM
GI50 (BT-549 breast): 441 nM
TGI (BT-549 breast): 1910 nM
GI50 (NCI-H522 lung): 890 nM
TGI (NCI-H522 lung): 2380 nM
GI50 (SN12C renal): 1420 nM
TGI (SN12C renal): 5210 nM
GI50 (CAKI-1 renal): 1460 nM
TGI (CAKI-1 renal): 3280 nM
GI50 (DU-145 prostate): 1350 nM
TGI (DU-145 prostate): 2830 nM
GI50 (RXF 393 renal): 1180 nM
TGI (RXF 393 renal): 2520 nM
GI50 (SF-295 CNS): 10400 nM
TGI (SF-295 CNS): 22300 nM
GI50 (MALME-3M melanoma): 2140 nM
TGI (MALME-3M melanoma): 4240 nM
GI50 (T-47D breast): 1890 nM
TGI (T-47D breast): 4380 nM
GI50 (NCI-H23 lung): 3000 nM
TGI (NCI-H23 lung): 9330 nM
GI50 (NCI/ADR-RES ovarian): 7870 nM
TGI (NCI/ADR-RES ovarian): 28800 nM
GI50 (OVCAR-3 ovarian): 695 nM
TGI (OVCAR-3 ovarian): 2100 nM
GI50 (COLO 205 colon): 1220 nM
TGI (COLO 205 colon): 2710 nM
GI50 (SW-620 colon): 450 nM
TGI (SW-620 colon): 1920 nM
GI50 (UACC-257 melanoma): 2020 nM
TGI (UACC-257 melanoma): 5010 nM
GI50 (SK-MEL-28 melanoma): 1520 nM
TGI (SK-MEL-28 melanoma): 3340 nM
GI50 (SNB-19 CNS): 4760 nM
TGI (SNB-19 CNS): 18400 nM
GI50 (CCRF-CEM leukemia): 152 nM
TGI (CCRF-CEM leukemia): 1070 nM
GI50 (SF-539 CNS): 1530 nM
TGI (SF-539 CNS): 3020 nM
GI50 (M14 melanoma): 1360 nM
TGI (M14 melanoma): 3400 nM
GI50 (SK-MEL-2 melanoma): 6270 nM
TGI (SK-MEL-2 melanoma): 21200 nM
GI50 (UACC-62 melanoma): 1700 nM
TGI (UACC-62 melanoma): 3690 nM
GI50 (HCT-15 colon): 1340 nM
TGI (HCT-15 colon): 2730 nM
GI50 (HCC-2998 colon): 5770 nM
TGI (HCC-2998 colon): 19000 nM
GI50 (RPMI-8226 leukemia): 266 nM
TGI (RPMI-8226 leukemia): 1520 nM
GI50 (HS 578T breast): 2750 nM
TGI (HS 578T breast): 16200 nM
GI50 (OVCAR-8 ovarian): 1610 nM
TGI (OVCAR-8 ovarian): 5530 nM
GI50 (EKVX NSCLC): 2070 nM
TGI (EKVX NSCLC): 6200 nM
GI50 (A549 NSCLC): 3260 nM
TGI (A549 NSCLC): 15000 nM
GI50 (MDA-MB-435): 1270 nM
TGI (MDA-MB-435): 2870 nM
GI50 (SK-MEL-5 melanoma): 1380 nM
TGI (SK-MEL-5 melanoma): 2690 nM
GI50 (MOLT-4 leukemia): 1320 nM
TGI (MOLT-4 leukemia): 4740 nM
GI50 (NCI-H460 lung): 3760 nM
TGI (NCI-H460 lung): 16700 nM
GI50 (NCI-H226 lung): 14900 nM
TGI (NCI-H226 lung): 35500 nM
GI50 (SF-268 CNS): 2550 nM
TGI (SF-268 CNS): 7650 nM
GI50 (IGROV1 ovarian): 2550 nM
TGI (IGROV1 ovarian): 7380 nM
GI50 (HL-60(TB) leukemia): 255 nM
TGI (HL-60(TB) leukemia): 1880 nM
GI50 (HOP-92 NSCLC): 1790 nM
TGI (HOP-92 NSCLC): 3440 nM
